Measurements reported in article PMC11352409, “Subtype-Specific Ligand Binding and Activation Gating in Homomeric and Heteromeric P2X Receptors” (Biomolecules, 2024).
Several values for one entry are separate records, joined by “and”; a condition that tells them apart may be missing. Identical values can stand only once.

Columns and labels:
Type in all cases: cell-based
human P2X2/3 receptors = molecular target: T1, human P2X2/3 receptors (Homo sapiens, UniProt P56373+Q9UBL9); assay: Whole-cell patch-clamp concentration-activation, HEK293 cells stably expressing hP2X2/3
T1 construct: expressed in transfected cells
T1 sequence (Q9UBL9 1-404 isoform Q9UBL9-2): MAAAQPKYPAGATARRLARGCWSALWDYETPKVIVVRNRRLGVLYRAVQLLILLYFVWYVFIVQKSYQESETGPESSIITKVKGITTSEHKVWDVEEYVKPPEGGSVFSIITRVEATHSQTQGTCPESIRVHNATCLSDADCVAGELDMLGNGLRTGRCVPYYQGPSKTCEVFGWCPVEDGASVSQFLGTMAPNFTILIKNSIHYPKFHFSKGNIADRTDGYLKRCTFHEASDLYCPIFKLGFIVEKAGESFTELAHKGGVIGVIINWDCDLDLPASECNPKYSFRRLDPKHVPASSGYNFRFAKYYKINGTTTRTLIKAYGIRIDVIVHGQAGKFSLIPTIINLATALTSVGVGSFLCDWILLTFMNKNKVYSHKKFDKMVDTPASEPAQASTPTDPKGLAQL
T1 sequence (P56373 1-397): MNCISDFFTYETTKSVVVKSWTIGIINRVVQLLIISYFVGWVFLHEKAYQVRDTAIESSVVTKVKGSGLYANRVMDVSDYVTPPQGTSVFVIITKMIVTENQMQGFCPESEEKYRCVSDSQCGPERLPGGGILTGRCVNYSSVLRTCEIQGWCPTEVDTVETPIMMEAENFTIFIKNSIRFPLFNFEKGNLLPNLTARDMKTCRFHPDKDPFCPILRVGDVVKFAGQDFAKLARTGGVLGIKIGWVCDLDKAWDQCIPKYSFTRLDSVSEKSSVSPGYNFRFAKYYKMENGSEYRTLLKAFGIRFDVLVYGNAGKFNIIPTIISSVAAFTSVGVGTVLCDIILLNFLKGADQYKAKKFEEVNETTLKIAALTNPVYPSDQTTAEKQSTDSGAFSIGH
Description: (§1) Human P2X receptors were expressed from HEK293 cell lines containing an inducible promoter system (Flp-In-T-REx 293, Invitrogen, Waltham, MA, USA). The used cell lines were: hP2X2 B (RRID: AC line CVCL_D6U1), hP2X3 (RRID: AC line CVCL_D6U3), and hP2X2/3 (RRID: AC line CVCL_D6U2). The cells were cultured in MEM supplemented with non-essential amino acids (Gibco, Waltham, MA, USA), 10% FCS, and antibiotics, according to the manufacturer’s instructions. For stable cell lines, Flp-In-T-REx 293 cells were transfected using the calcium phosphate method with a mixture of plasmids (0.3 µg pcDNA5/FRT/TO P2X gene and 1.5 µg pOG44) and selected for hygromycin resistance. The cells were seeded on glass coverslips for electrophysiological measurements and used 24–48 h after tetracycline induction ([…]).
(§2) Membrane currents were recorded with a standard patch-clamp technique in the whole-cell configuration. The patch pipettes were pulled from borosilicate glass (ID 1.0 mm, OD 2.0 mm; VITROCOM, Mountain Lakes, NJ, USA) using a micropipette puller (P-97, Sutter Instrument, Novato, CA, USA). The pipettes were filled with intracellular solution containing (mM) 142 NaCl, 5 BAPTA, 5 EGTA, and 10 HEPES at pH 7.4. The pipette resistance was from 2.0 to 6.0 MΩ. The bath solution contained (mM) 142 NaCl, 10 EGTA, 10 HEPES, and 10 glucose at pH 7.4. To increase the speed of recovery from the hP2X3 receptors, we additionally used a bath solution containing (mM) 142 NaCl, 10 HEPES, 10 glucose, 2 CaCl2, and 1 MgCl2. The cells were lifted for recording from the chamber bottom by the patch pipette and positioned in front of the outlet of the application pipette.
(§3) Solutions switches were carried out with the application pipette that had three barrels (inner diameter ~600 µm, Warner Instruments) controlled by a step motor (SF-77B, Warner Instruments). The speed of the laminar solution flow out of the barrels was estimated to be 2–5 cm/s. One barrel contained a control solution and another was connected to a solution selector (Vici Valco Instruments), which allowed us to apply different test solutions by exchanging the solution during the interval (60 sec for P2X2 and P2X2/3 receptors, 180 s for P2X3 receptors) of applying the control solution. Cells expressing hP2X3 were washed with 3 Units/mL apyrase for 30 min to remove ATP. To ensure the comparability of the data points between each application, we rinsed hP2X3 with the following solution for 3 min after each ATP application (mM): 142 NaCl, 10 HEPES, 10 glucose, 2 CaCl2, and 1 MgCl2 at pH 7.4. After sufficient recovery, we switched to the bath solution for 10 s and then to the solution of interest. The speed of the switch around a whole cell was estimated to be below 10 ms by switching between different salt solutions.
(§4) The saturation of activation was determined with ATP at 100 µM. The currents were recorded with a HEKA EPC 10 amplifier in combination with the patchmaster software. The sampling rate was 10 kHz and the recordings were on-line filtered at 2.9 kHz using a four-pole Bessel filter. The currents were recorded at a constant holding potential of −50 mV and the series resistance was compensated with the patchmaster software up to 80%.
(§5) The concentration–activation relationships from whole-cell measurements in the HEK293 cells were obtained from the maximum currents during ATP application. These current amplitudes were normalised with respect to the current at saturating ATP (100 µM) and the resulting data points were fitted I/ImaxATP = Amp/(1 + (EC50/[X])^h) (1) with the Origin 2019® software using a non-linear curve fitting routine. I is the actual current amplitude and ImaxATP is the maximum current amplitude at saturating ATP. The amplitude Amp is the efficacy of the respective ligands. EC50 is the ligand concentration generating the half-maximum current and h is the respective Hill coefficient. [X] is the actual concentration of ATP to be tested. […]

human P2X3 receptors = molecular target: T2, human P2X3 receptors (Homo sapiens, UniProt P56373); assay: Whole-cell patch-clamp concentration-activation, HEK293 cells stably expressing hP2X3; conditions: for Hill: hP2X3, Hill coefficient of concentration-activation fit; for Effect (Fold in ATP Potency): hP2X3, relative to ATP; for Effect (Fold in ATP Efficacy): hP2X3, relative to current at 100 µM ATP; for EC50: hP2X3, whole-cell, -50 mV, divalent-cation-free bath with 10 mM EGTA, normalised to 100 µM ATP
T2 construct: expressed in transfected cells
T2 sequence (P56373 1-397): T1 sequence (P56373 1-397)
Description: as §1, §2, §3, §4, §5

human P2X2 receptors = molecular target: T3, human P2X2 receptors (Homo sapiens, UniProt Q9UBL9); assay: Whole-cell patch-clamp concentration-activation, HEK293 cells stably expressing hP2X2; conditions: for Hill: hP2X2, Hill coefficient of concentration-activation fit; for Effect (Fold in ATP Potency): hP2X2, relative to ATP; for Effect (Fold in ATP Efficacy): hP2X2, relative to current at 100 µM ATP; for EC50: hP2X2, whole-cell, -50 mV, divalent-cation-free bath with 10 mM EGTA, normalised to 100 µM ATP
T3 construct: expressed in transfected cells
T3 sequence (Q9UBL9 1-404 isoform Q9UBL9-2): T1 sequence (Q9UBL9 1-404 isoform Q9UBL9-2)
Description: as §1, §2, §3, §4, §5

Hill (human P2X2/3 receptors; hP2X2/3, Hill coefficient of concentration-activation fit)	Effect (Fold in ATP Potency) (human P2X2/3 receptors; hP2X2/3, relative to ATP)	Effect (Fold in ATP Efficacy) (human P2X2/3 receptors; hP2X2/3, relative to current at 100 µM ATP)	EC50 (human P2X2/3 receptors; hP2X2/3, whole-cell, -50 mV, divalent-cation-free bath with 10 mM EGTA, normalised to 100 µM ATP)	Hill (human P2X3 receptors)	Effect (Fold in ATP Potency) (human P2X3 receptors)	Effect (Fold in ATP Efficacy) (human P2X3 receptors)	EC50 (human P2X3 receptors)	Current response in presence of Mg2+ (human P2X2 receptors; hP2X2, 0.3 µM ATP with 1 mM MgCl2 (27.5 nM ATP4- + 272.5 nM Mg2+ATP))	Hill (human P2X2 receptors)	Effect (Fold in ATP Potency) (human P2X2 receptors)	Effect (Fold in ATP Efficacy) (human P2X2 receptors)	EC50 (human P2X2 receptors)	Agonist behaviour (current response) (human P2X2 receptors; hP2X2, result in words)	Compound
0.9 ± 0.1	1 fold	1 fold	2.7 ± 0.4 µM	1.3 ± 0.2	1 fold	1 fold	1.1 ± 0.1 µM	completely abolished	1.1 ± 0.1	1 fold	1 fold	0.7 ± 0.1 µM	–	Nc1ncnc2c1ncn2[C@@H]1O[C@H](COP(=O)(O)OP(=O)(O)OP(=O)(O)O)[C@@H](O)[C@H]1O [ATP]
–	–	–	–	1.6 ± 0.7	0.1 fold	1.9 fold	9.6 ± 3.3 µM	–	1.7 ± 1.5	0.1 fold	0.1 fold	~6.8 µM and 6.8 µM	only partially	Nc1ncnc2c1ncn2[C@@H]1O[C@H](COP(=O)(O)CP(=O)(O)OP(=O)(O)O)[C@@H](O)[C@H]1O [α,βMe-ATP, αβmethylene-ATP]
